Results published in US9561228B2 (Celgene Avilomics Research, Inc., priority 2013, dated 2017).

Tested on: ERK1/ERK2
Test: Measurement of Erk occupancy with biotinylated covalent probe I-299 (HT-29)
Type: cell-based
Conditions: HT-29 cells
Experimental: Measurement of Erk Occupancy with Biotinylated Covalent Probe
This experiment measured occupancy of the ERK1/ERK2 target by compounds according to the invention. This experiment was conducted using the Mesoscale Discovery test kit (Cat. # N45107B). One day before the assay, cells were split and added at 50,000 cells per well to a flat-bottom 96 well plate in 200 μl of growth medium. The next day, the medium was discarded, 100 μl medium containing test compound was added, and the plate was incubated at 37° C. for 120 minutes. The plate was rinsed once with PBS, and 50 μl lysis buffer with test compound was added. The plate was incubated at 4° C. for 30 min, and 30 μl of lysate was transferred to a plate to capture total and phosphor-Erk. Biotinylated probe 1-299 was diluted in lysis buffer and added to each well to a final concentration of 0.2 μM. The plate was incubated for 2 hr under constant shaking at room temperature. The plate was washed 3 times with MSD wash buffer. To detect the biotinylated probe bonding, tagged streptavidin was added (Mesoscale Discovery, Cat. # R32AD-1) at 1 μg/ml, 25 μl/well, followed by a 60 min incubation under shaking. The plate was washed 3 times, 150 μl MSD Read Buffer (Mesoscale Discovery, Cat. R61TX) was added and the plate was read in a plate reader manufactured by MSD. Percent occupancy by test compound at Erk was calculated by comparing the chemiluminescence readings from treated cells as compared to the chemiluminescence readings in untreated controls (which are defined as 100% probe bonding or 0% test compound occupancy). The amount of covalent probe signal divided by the amount of ERK signal for samples with no test compound treatment represents the maximum probe signal (MPS). In samples treated with test compound prior to covalent probe, the ratio of probe signal to ERK signal (the test probe signal, TPS) was reduced by the degree of target occupancy by the test compound which blocks covalent probe binding. The difference between the MPS and the TPS, divided by the MPS gave the target occupancy by the test compound. This ratio was then expressed as a percent occupancy. Results from this assay are provided in Table A below under the column “Occupancy EC50 (nM) HT-29.”

EC50: < 100 nM
SMILES: C=CC(=O)Nc1ccccc1Nc1nc(Nc2cc(C(N)=O)ccc2C)ncc1C(F)(F)F [Compound I-68, 3-(4-(2-Acrylamidophenylamino)-5-(trifluoromethyl)pyrimidin-2-ylamino)-4-methylbenzamide]
